Reference: ChEMBL document CHEMBL1201862, “PubChem BioAssay data set” (2004)
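Values below derive from 48-hour exposures of cells grown in 96-well plates, with endpoints linearly interpolated between the two concentrations bracketing the appropriate inhibition level. GI50 is the concentration that inhibits growth by half.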 Activity calls are given as the source filed them. Rule as the data show it: active = GI50 up to about 1.1 µM and inactive = higher.

What was measured:
Test in all cases: DTP human tumour cell line panel, 48 h
[1] = system: M14
[2] = system: K562
[3] = system: HCC 2998
[4] = system: NCI-H522
[5] = system: OVCAR-4
[6] = system: HCT-15
[7] = system: UACC-62
[8] = system: A498
[9] = system: SF-295
[10] = system: SK-MEL-28
[11] = system: U-251
[12] = system: MOLT-4
[13] = system: OVCAR-3
[14] = system: COLO 205
[15] = system: HL-60
[16] = system: NCI-H23
[17] = system: 786-0
[18] = system: SN12C
[19] = system: CAKI-1

| SMILES | GI50 [1] | GI50 [2] | GI50 [3] | GI50 [4] | GI50 [5] | GI50 [6] | GI50 [7] | GI50 [8] | GI50 [9] | GI50 [10] | GI50 [11] | GI50 [12] | GI50 [13] | GI50 [14] | GI50 [15] | GI50 [16] | GI50 [17] | GI50 [18] | GI50 [19] |
| --- | --- | --- | --- | --- | --- | --- | --- | --- | --- | --- | --- | --- | --- | --- | --- | --- | --- | --- | --- |
| C/C(=N\NC(=S)NC(CCC(=O)O)C(=O)O)c1ccccn1 (stereo not given) | > 100 µM (inactive) | > 100 µM (inactive) | > 100 µM (inactive) | > 100 µM (inactive) | > 100 µM (inactive) | > 100 µM | > 100 µM (inactive) | > 100 µM (inactive) | > 100 µM (inactive) | > 100 µM (inactive) | > 100 µM (inactive) | > 100 µM (inactive) | > 100 µM (inactive) | > 100 µM (inactive) | > 100 µM (inactive) | > 100 µM (inactive) | > 100 µM (inactive) | > 100 µM (inactive) |  |
| CNC(=O)c1nn[nH]c1Sc1c([N+](=O)[O-])ncn1C | > 100 µM (inactive) | > 100 µM (inactive) | > 100 µM (inactive) | > 100 µM (inactive) | > 100 µM (inactive) | > 100 µM | > 100 µM (inactive) | > 100 µM (inactive) | > 100 µM (inactive) | > 100 µM (inactive) | > 100 µM (inactive) | > 100 µM (inactive) | > 100 µM (inactive) | > 100 µM (inactive) |  | > 100 µM (inactive) | > 100 µM (inactive) | > 100 µM (inactive) | > 100 µM (inactive) |
| O=C(CSc1nnc(-c2ccc(/N=C\c3ccc(Cl)cc3)cc2)o1)Nc1ccc([N+](=O)[O-])cc1 | 19.4 µM (inactive) | 21.2 µM (inactive) |  | 20.9 µM (inactive) | 26.2 µM (inactive) | 18.4 µM | 18.9 µM (inactive) |  | 30.2 µM (inactive) | 18.5 µM (inactive) | 19.3 µM (inactive) | 15.7 µM (inactive) |  | 35.2 µM (inactive) | 26.4 µM (inactive) | 19.4 µM (inactive) | 19.8 µM (inactive) | 21.7 µM (inactive) |  |
| c1cncc(C2(c3cc4ccccc4[nH]3)COCO2)c1 (stereo not given) | > 100 µM (inactive) | > 100 µM (inactive) | > 100 µM (inactive) |  | 65 µM (inactive) | > 100 µM | 96.8 µM (inactive) |  | > 100 µM (inactive) | > 100 µM (inactive) | > 100 µM (inactive) | 97.9 µM (inactive) | > 100 µM (inactive) | 19.1 µM (inactive) | 32.7 µM (inactive) | > 100 µM (inactive) | > 100 µM (inactive) |  | > 100 µM (inactive) |
| COC1=CC(=O)C(Br)=CC1=O | 19 µM (inactive) | 3.06 µM (inactive) | 36.3 µM (inactive) | 8.69 µM (inactive) | 17.9 µM (inactive) | 21.6 µM | 17.6 µM (inactive) |  |  | 19.5 µM (inactive) |  | 3.3 µM (inactive) |  | 16.7 µM (inactive) | 5.32 µM (inactive) | 18.9 µM (inactive) | 18.6 µM (inactive) | 18.5 µM (inactive) | 18.4 µM (inactive) |
| CC(C)C1=CC23CCC4C(C)(C(=O)O)CCCC4(C)C2CC1C1C(=O)N(c2ccccc2)C(=O)C13 (stereo not given) | 40.5 µM (inactive) | 69.8 µM (inactive) |  | 49.1 µM (inactive) | > 100 µM (inactive) | 30.9 µM | 38.6 µM (inactive) |  | 51.2 µM (inactive) | 53.2 µM (inactive) | 36.6 µM (inactive) | > 100 µM (inactive) | 33.7 µM (inactive) | 24.3 µM (inactive) | 95.9 µM (inactive) | > 100 µM (inactive) | 55.2 µM (inactive) | 45.9 µM (inactive) | > 100 µM (inactive) |
| COC(=O)CCC12CCC(=O)C1[C@@H](C(=O)OC)C[C@H]2C(=O)OC (stereo not given in full) | > 100 µM (inactive) | > 100 µM (inactive) | > 100 µM (inactive) | > 100 µM (inactive) | > 100 µM (inactive) | > 100 µM | > 100 µM (inactive) | > 100 µM (inactive) | > 100 µM (inactive) |  | > 100 µM (inactive) | > 100 µM (inactive) | > 100 µM (inactive) | > 100 µM (inactive) | > 100 µM (inactive) | > 100 µM (inactive) | > 100 µM (inactive) | > 100 µM (inactive) | > 100 µM (inactive) |
| O=C(Nc1ccccc1)OCc1nc2c([nH]1)C(=O)C=CC2=O | 16 µM (inactive) | 2.55 µM (inactive) | 16.5 µM (inactive) |  | 14.3 µM (inactive) | 18.2 µM | 19.7 µM (inactive) | 16.2 µM (inactive) | 18.6 µM (inactive) | 15.6 µM (inactive) | 12.5 µM (inactive) | 2.32 µM (inactive) | 16.7 µM (inactive) | 1.9 µM (inactive) | 3.29 µM (inactive) | 19.4 µM (inactive) | 18.3 µM (inactive) | 17.2 µM (inactive) | 0.35 µM (active) |
